pIC50: −log10 of the molar value.
Each molecule was assayed against T1, GLUT1 (Homo sapiens, UniProt P11166) (assay: Indirect measurement of GLUT1 activity by quantification of intracellular ATP levels (glucose induced ATP increase)). Details: read-out: IC50 regarding glucose induced ATP increase (GLUT1 inhibition).
T1 sequence (P11166 1-492): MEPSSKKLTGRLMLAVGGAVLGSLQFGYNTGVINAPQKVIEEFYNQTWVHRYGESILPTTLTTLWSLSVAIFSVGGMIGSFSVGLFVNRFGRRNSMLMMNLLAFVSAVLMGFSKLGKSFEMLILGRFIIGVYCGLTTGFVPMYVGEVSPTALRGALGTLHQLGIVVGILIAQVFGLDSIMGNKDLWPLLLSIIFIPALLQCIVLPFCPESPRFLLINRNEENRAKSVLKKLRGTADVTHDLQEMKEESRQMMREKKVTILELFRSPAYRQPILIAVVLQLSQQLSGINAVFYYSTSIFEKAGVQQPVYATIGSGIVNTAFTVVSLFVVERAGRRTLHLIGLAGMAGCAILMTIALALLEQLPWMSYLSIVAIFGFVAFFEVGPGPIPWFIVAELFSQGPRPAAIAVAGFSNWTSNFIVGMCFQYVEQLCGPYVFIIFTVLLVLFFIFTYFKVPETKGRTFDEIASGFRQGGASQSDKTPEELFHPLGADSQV
Format: cell-based
Set-up: endogenous in cells; host or cells: DLD1 or CHO-K1
Method in brief: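 DLD1 or CHO-K1 cells were starved overnight in glucose-free medium with 1% FCS, then combined with an oxidative phosphorylation inhibitor. GLUT1 activity was read as glucose-induced ATP increase, GLUT2 as fructose-induced. Intracellular ATP was quantified by CellTiter-Glo luminescence.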

SMILES	pIC50
Cc1nn(Cc2ccc(S(C)(=O)=O)cc2)c(C)c1NC(=O)c1cc(C(N)=O)nc2ccccc12 [Example 224, N^4-{3,5-dimethyl-1-[4-(methylsulfonyl)benzyl]-1H-pyrazol-4-yl}quinoline-2,4-dicarboxamide]	7.95
Cc1nn(Cc2ccc(C(=O)N[C@H](C)[C@@H](C)O)cc2)c(C)c1NC(=O)c1cc(C(F)(F)F)nc2ccc(Br)cc12 (relative stereo) [Example 1057]	7.82
COc1cc(C(=O)Nc2c(C)nn(Cc3cn4ccccc4n3)c2C)c2ccccc2n1 [Example 1527]	6.64
Cc1nn(Cc2ncco2)c(C)c1NC(=O)c1cc(C(F)(F)F)nc2ccc(Br)cc12 [Example 1506]	7.45
Cc1nn(Cc2ccc(C(=O)NCC3CCOCC3)cc2)c(C)c1NC(=O)c1cc(C(F)(F)F)nc2ccc(Br)cc12 [Example 1193]	6.47
Cc1nn(Cc2ccc(C#N)cc2)c(C)c1NC(=O)c1cc(S(N)(=O)=O)nc2ccccc12 [Example 1573]	6.38
COc1cc(C(=O)Nc2c(C)nn(Cc3ccc(C#N)cn3)c2C)c2ccccc2n1 [Example 357, N-{1-[(5-cyanopyridin-2-yl)methyl]-3,5-dimethyl-1H-pyrazol-4-yl}-2-methoxyquinoline-4-carboxamide]	7.54
Cc1c(NC(=O)c2cc(C(F)(F)F)nc3ccc(Br)cc23)c(C(F)(F)F)nn1Cc1ccc(C(N)=O)cn1 [Example 1076]	7.64
COc1cc(C#N)ccc1Cn1nc(C(F)(F)F)c(NC(=O)c2cc(C(N)=O)nc3cc(F)c(Cl)cc23)c1C [Example 1648]	8.64
CC(=O)c1ccc(Cn2nc(C)c(NC(=O)c3cc(C(N)=O)nc4cc(F)ccc34)c2C)cc1 [Example 1608]	8.40
Cc1nn(Cc2ccc(F)cc2F)c(C)c1NC(=O)c1cc(C(F)(F)F)nc2c(Cl)cc(Cl)cc12 [Example 48, 6,8-dichloro-N-[1-(2,4-difluorobenzyl)-3,5-dimethyl-1H-pyrazol-4-yl]-2-(trifluoromethyl)quinoline-4-carboxamide]	7.35
Cc1ccccc1Cn1nc(C)c(NC(=O)c2cc(C(F)(F)F)nc3c(Cl)cc(Cl)cc23)c1C [Example 89, 6,8-dichloro-N-[3,5-dimethyl-1-(2-methylbenzyl)-1H-pyrazol-4-yl]-2-(trifluoromethyl)quinoline-4-carboxamide]	6.55
Cc1cc2c(C(=O)Nc3c(C(F)(F)F)nn(Cc4ccc(C#N)cc4)c3C)cc(C(N)=O)nc2cc1F [Example 343, N^4-[1-(4-cyanobenzyl)-5-methyl-3-(trifluoromethyl)-1H-pyrazol-4-yl]-7-fluoro-6-methylquinoline-2,4-dicarboxamide]	9.15
CNC(=O)c1nc(Cn2nc(C)c(NC(=O)c3cc(C(N)=O)nc4ccccc34)c2C)no1 [Example 1509]	7.79
Cc1nn(Cc2ccc(C(=O)NCCOCCO)cc2)c(C)c1NC(=O)c1cc(C(F)(F)F)nc2ccc(Br)cc12 [Example 1144]	6.94
Cc1nonc1Cn1nc(C)c(NC(=O)c2cc(C(F)(F)F)nc3ccc(Br)cc23)c1C [Example 1520]	6.13
Cc1nn(Cc2ccn(C)n2)c(C)c1NC(=O)c1cc(C(F)(F)F)nc2ccc(Br)cc12 [Example 187, 6-bromo-N-{3,5-dimethyl-1-[(1-methyl-1H-pyrazol-3-yl)methyl]-1H-pyrazol-4-yl}-2-(trifluoromethyl)quinoline-4-carboxamide]	6.88
Cc1nn(Cc2ccc(C(=O)NCCC(C)(C)O)cc2)c(C)c1NC(=O)c1cc(C(F)(F)F)nc2ccc(Br)cc12 [Example 1204]	6.36
COc1cc(C(=O)Nc2c(C(F)(F)F)nn(Cc3ccc(S(C)(=O)=O)cc3)c2C)c2ccccc2n1 [Example 1431]	6.86
COc1cc(C(=O)Nc2c(C)nn(Cc3ccccc3OC(F)(F)F)c2C)c2ccccc2n1 [Example 1289]	5.20
Cc1c(NC(=O)c2cc(C(N)=O)nc3ccc(Br)cc23)c(C(F)(F)F)nn1Cc1ccc(OC(F)(F)F)cc1 [Example 1498]	8.10
Cc1c(NC(=O)c2cc(C(N)=O)nc3ccccc23)c(C(F)(F)F)nn1Cc1ncccc1C#N [Example 1393]	7.82
Cc1nn(CC2CCNCC2)c(C)c1NC(=O)c1cc(C(F)(F)F)nc2ccc(Br)cc12 [Example 1222]	6.05
Cc1c(NC(=O)c2cc(C(N)=O)nc3cc(F)ccc23)c(C(F)(F)F)nn1Cc1ccc(CC(F)(F)F)cc1 [Example 1714]	8.19
Cc1cc(C(=O)Nc2c(C)nn(Cc3ccc(F)c(F)c3)c2C)c2cc(Br)ccc2n1 [Example 185, 6-bromo-N-[1-(3,4-difluorobenzyl)-3,5-dimethyl-1H-pyrazol-4-yl]-2-methylquinoline-4-carboxamide]	6.91
CNC(=O)c1nn(Cc2ccc(F)cc2)c(C)c1NC(=O)c1cc(C(F)(F)F)nc2ccc(Br)cc12 [Example 1126]	7.10
COc1ccc(Cn2nc(C)c(NC(=O)c3cc(C(N)=O)nc4ccccc34)c2C)cc1F [Example 238, N^4-[1-(3-fluoro-4-methoxybenzyl)-3,5-dimethyl-1H-pyrazol-4-yl]quinoline-2,4-dicarboxamide]	8.96
Cc1nn(C(C)c2ccc(C#N)cc2)c(C)c1NC(=O)c1cc(C(N)=O)nc2ccccc12 (racemic) [Example 329, (±)-N^4-{1-[1-(4-cyanophenyl)ethyl]-3,5-dimethyl-1H-pyrazol-4-yl}quinoline-2,4-dicarboxamide]	8.96
COc1cc(C(=O)Nc2c(C(F)(F)F)nn(Cc3ccncc3C#N)c2C)c2ccccc2n1 [Example 1188]	6.54

Other lines, results leading:

pIC50	SMILES
8.17	Cc1nn(Cc2ccc(C(=O)Nc3ccccc3Cl)cc2)c(C)c1NC(=O)c1cc(C(F)(F)F)nc2ccc(Br)cc12 [Example 1040]
9.10	Cc1c(NC(=O)c2cc(C(N)=O)nc3cc(F)c(Br)cc23)c(C(F)(F)F)nn1Cc1ccc(C#N)cc1 [Example 1611]
7.19	Cc1nn(Cc2ccc(F)c(F)c2)c(C)c1NC(=O)c1cc(C(F)(F)F)nc2cccc(F)c12 [Example 173, N-[1-(3,4-difluorobenzyl)-3,5-dimethyl-1H-pyrazol-4-yl]-5-fluoro-2-(trifluoromethyl)quinoline-4-carboxamide]
7.87	Cc1c(NC(=O)c2cc(C(N)=O)nc3ccccc23)c(C(F)(F)F)nn1Cc1cc(C2CC2)on1 [Example 1549]
8.22	Cc1c(NC(=O)c2cc(C(N)=O)nc3cccc(F)c23)c(C(F)(F)F)nn1Cc1ccc(C#N)cn1 [Example 363, N^4-{1-[(5-cyanopyridin-2-yl)methyl]-5-methyl-3-(trifluoromethyl)-1H-pyrazol-4-yl}-5-fluoroquinoline-2,4-dicarboxamide]
7.79	CCc1cc(Cn2nc(C)c(NC(=O)c3cc(C(N)=O)nc4cc(F)ccc34)c2C)on1 [Example 1532]
7.24	Cc1nn(Cc2cccnc2)c(C)c1NC(=O)c1cc(C(F)(F)F)nc2ccc(Br)cc12 [Example 171, 6-bromo-N-[3,5-dimethyl-1-(pyridin-3-ylmethyl)-1H-pyrazol-4-yl]-2-(trifluoromethyl)quinoline-4-carboxamide]
7.53	Cc1nn(Cc2ccc(C(=O)NCCCCO)cc2)c(C)c1NC(=O)c1cc(C(F)(F)F)nc2ccc(Br)cc12 [Example 1083]
8.41	CCc1nn(Cc2ccc(C#N)cc2)c(C)c1NC(=O)c1cc(C(N)=O)nc2ccccc12 [Example 325, N^4-[1-(4-cyanobenzyl)-3-ethyl-5-methyl-1H-pyrazol-4-yl]quinoline-2,4-dicarboxamide]
5.20	Cc1ccc2nc(C)cc(C(=O)Nc3c(C)nn(Cc4ccccc4OC(F)(F)F)c3C)c2c1 [Example 1287]
8.92	COc1cc2c(C(=O)Nc3c(C)nn(Cc4ccc(C#N)cc4)c3C)cc(C(N)=O)nc2cc1F [Example 254, N^4-[1-(4-cyanobenzyl)-3,5-dimethyl-1H-pyrazol-4-yl]-7-fluoro-6-methoxyquinoline-2,4-dicarboxamide]
7.67	Cc1c(NC(=O)c2cc(C(N)=O)nc3ccccc23)c(C(F)(F)F)nn1Cc1ccc(C#N)nc1 [Example 289, N^4-{1-[(6-cyanopyridin-3-yl)methyl]-5-methyl-3-(trifluoromethyl)-1H-pyrazol-4-yl}quinoline-2,4-dicarboxamide]
7.23	Cc1nn(Cc2ccc(CC(N)=O)cc2)c(C)c1NC(=O)c1cc(C(F)(F)F)nc2ccc(Br)cc12 [Example 152, N-{1-[4-(2-amino-2-oxoethyl)benzyl]-3,5-dimethyl-1H-pyrazol-4-yl}-6-bromo-2-(trifluoromethyl)quinoline-4-carboxamide]
6.82	Cc1c(NC(=O)c2cc(C(N)=O)nc3ccccc23)c(C(F)(F)F)nn1Cc1cc(C#N)no1 [Example 1672]
7.23	Cc1ccc2nc(C)cc(C(=O)Nc3c(C)nn(Cc4ccc(Br)cc4)c3C)c2c1 [Example 1113]
6.93	Cc1nn(Cc2ccc(C(=O)N(CCO)CCO)cc2)c(C)c1NC(=O)c1cc(C(F)(F)F)nc2ccc(Br)cc12 [Example 1145]
5.54	COc1ccccc1Cn1nc(C)c(NC(=O)c2cc(C(F)(F)F)nc3cc(F)c(F)cc23)c1C [Example 1270]
7.58	Cc1nn(Cc2ccc(C(=O)N3CCC[C@@H]3CO)cc2)c(C)c1NC(=O)c1cc(C(F)(F)F)nc2ccc(Br)cc12 [Example 1081]

— US20170037028A1 (BAYER PHARMA AKTIENGESELLSCHAFT, priority 2013, published 2017)
